What was measured:
[1] = test system: HT29 cells (human colon carcinoma); test: Antiproliferative activity, 72 h treatment, SRB assay, HT29; assay type: cell-based
[2] = test system: HT29/Mit cells (mitoxantrone-resistant human colon carcinoma, BCRP overexpression); test: Antiproliferative activity, 72 h treatment, SRB assay, HT29/Mit
Experimental: HT29 and HT29/Mit (line obtained by prolonged exposure to mitoxantrone, and characterised by overerexpression of BCRP, which confers cross resistance to topotecan, irinotecan and to its metabolite SN38): maintained in McCoy 5A medium+10% FCS.
The cells (HT29 and HT29/Mit:. 40,000 cells/ml, LoVo, LoVo/Dx and HCT116: 50,000 cells/ml) are seeded in 100 μl of the respective culture media in 96-well plates. 24 hours after seeding, an aliquot (10 μl) of drug at the various concentrations is added. In the samples in which the effect of the combination of two compounds is to be tested the inhibitor is added immediately before the cytotoxic. For each dose or combination of doses/drugs the effect of the treatment is determined in 4-8 replicates.
After 72 hours of treatment the antiproliferative effect is evaluated using the sulforhodamine B (SRB) assay: the cells are fixed by adding 25 μl of 50% TCA to each well and left for 1 hour at 4° C. After washing them with water and allowing them to dry, 100 μl of 0.4% SRB in 1% acetic acid are added and left for 30 minutes at room temperature. After 4 washes in 1% acetic acid, they are left to dry, then the dye fixed by the proteins is dissolved under basic conditions with 100 μl 10 mM cold Tris and the solution is read using a spectrophotometer at 550 nm.
Percentage cell growth is calculated as the optical density of treated samples compared to the optical density of controls (untreated cells).
The Combination Index (C.I.) was determined according to Kern's method, 1988 (who continued from Drewinko B, 1976) (Kern D. H., Cancer Res. 48, 117-121, 1988; Drewinko B., Cancer Biochem. Biophys. 1, 187-195, 1976) by means of the following formula: […], where SFa and SFb are the fractions of cells surviving to treatment with compound a and b, respectively; SFab is the fraction surviving to the combination of compounds a and b.

[3] = test system: LoVo/Dx cells (doxorubicin-resistant human colon carcinoma, P-glycoprotein overexpression); test: Antiproliferative activity, 72 h treatment, SRB assay, LoVo/Dx; assay type: cell-based
Text: LoVo and LoVo/Dx (line obtained by prolonged exposure to doxorubicin and characterised by overerexpression of P-glycoprotein, which confers resistance to doxorubicin): maintained in HAM-F12 medium+10% FCS.

[4] = test system: SH-SY5Y cells (human neuroblastoma); test: Antiproliferative activity, 48 h treatment, ATPlite luminescence assay, SH-SY5Y; assay type: cell-based; conditions: Homo sapiens, SH-SY5Y, 48 h, read-out: Antiproliferative activity (IC50 ± S.D., μM) SHSY-5Y
Experimental: SH-SY5Y and SK-N-BE(2): maintained in HAM-F12 medium+10% FCS.
24 hours after seeding, an aliquot (10 μl) of the drug at the various concentrations is added (for each concentration there are 3 replicates). After 48 hours of treatment the antiproliferative effect is evaluated with a luminescence assay (Perkin Elmer Life Sciences ATPlite):
50 μl of a lysis solution are added to each well followed by an equal volume of a solution containing luciferase and D-luciferin. The ATP present in all the metabolically active cells brings about the transformation reaction of D-luciferin, catalysed by luciferase, to produce a luminescent signal as described in the following scheme: ATP+D-luciferin+O2→Oxyluciferin+AMP+PPi+CO2+Light
The luminescence produced (expressed in counts per second, CPS) is measured by means of a microplate scintillation analyzer (Perkin Elmer Life Sciences Top Count).
Percentage inhibition of luminescence in the treated cells compared to the control is calculated; concentration-response curves are then analysed using Grafit v.5.0.

[5] = test system: H460 cells (human lung carcinoma); test: Invasion assay (Matrigel chemoinvasion); assay type: cell-based
Experimental: Human Lung Carcinoma:H460: maintained in RPMI1640 medium+10% FCS.
H460 cells were seeded in complete medium and treated with different compound concentrations for 24 h. Then, cells were harvested and transferred to 24-well Transwell chambers (Costar) in serum-free medium in the following ways:
invasion assay: Transwell membranes were coated with 12.5 μg/well of Matrigel (BD Biosciences) and dried for 24 h. After this, 2.4×10^5 cells/well were seeded onto the artificial basement membrane in upper chamber, and drug was added as described for migration assay. After 24 h of incubation at 37° C., cells that invaded the Matrigel and migrated to the lower chamber were stained and counted as described for migration assay.

[6] = test system: H460 spontaneous lung metastasis; test: H460 xenograft, spontaneous lung metastasis (antimetastatic activity); assay type: in vivo, athymic Swiss nude mice; conditions: topotecan 1 mg/kg, compound of example 2 30 mg/kg p.o.
Experimental: At day 63, tumor-bearing mice were sacrificed by cervical dislocation and their lungs were removed and weighed. Lung lobes were spliced between two glass slides and the metastatic nodules were macroscopically counted against a bright light (Corti C, J. Cancer Res. Clin. Oncol. 122, 154-60, 1996). […] Reading of metastasis was performed by two independent observers, unaware of the experimental group, with an interobserver reproducibility >95%. The metastatic nature of these areas was confirmed by histological analysis of digital images obtained by Image Analysis System software (Delta System, Rome, Italy).

[7] = Drug tolerability in H460 tumor-bearing mice (lethal toxicity); conditions: athymic Swiss nude, mouse, in vivo, 8 weeks
Experimental: The effects of the compounds of the invention and/or topotecan on the growth of primary tumors and spontaneous lung metastasis were tested in mice inoculated s.c. in the right flank with H460 ascitic tumor cells (2×10^6/mouse). Each control or drug-treated group included 9-11 mice. The s.c. tumor growth was followed by biweekly measurements of tumor diameters with a Vernier caliper. Drug treatment was delivered orally, for 8 weeks, from day 1. Topotecan was delivered at the dose of 1 mg/kg and compounds of the invention were delivered at the dose of 30 mg/kg; in the combination group the compounds of the invention were delivered almost 1 hour after topotecan treatment. Control mice were solvent-treated orally in parallel with drug treatments.
Drug efficacy was assessed as mean percentage tumor weight inhibition in drug-treated versus control mice expressed as tumor weight inhibition % (TWI %)=100−(mean tumor weight treated/mean tumor weight control×100), evaluated during and after drug treatment. Drug tolerability was assessed in tumor-bearing mice as either lethal toxicity, i.e., any death in treated mice occurring before any control death, or percentage body weight loss (BWL %)=100−(body weight on day x/body weight on day 1×100), where x represents a day after or during the treatment period.

[8] = cell line not stated in the sentence (follows LoVo/DX)

## CCOc1cc(C(=O)NC2CC(C)(C)NC(C)(C)C2)ccc1-c1cc2cc(Cl)c(Cl)cc2[nH]1 [Example 2]
[1]; HT29 model, subtoxic and subactive concentrations (<1 μM) of compound of example 2
  Effect on antiproliferative activity of topotecan: enhanced antiproliferative activity of topotecan
[1]; Homo sapiens, HT-29, 72 h, read-out: Antiproliferative activity (IC50 ± S.D., μM) HT-29
  IC50: 1 ± 0.1 µM
[1]; all lines: 72 hours (HT29, HT29/Mit, LoVo, LoVo/DX, HCT116) or 48 hours (HepG2, SHSY-5Y, SK-N-BE(2), A2780)
  Antiproliferative activity in the human tumour cell lines used (summary of Table 1): high antiproliferative potency
[2]; HT29/Mit model, subtoxic and subactive concentrations (<1 μM) of compound of example 2
  Effect on antiproliferative activity of topotecan: enhanced antiproliferative activity of topotecan
[2]; HT29/Mit, 72 hours, 0.5 μM
  Effect on cell growth of compound of example 2 alone: does not itself inhibit cell growth
[2]; Homo sapiens, HT-29, 72 h, read-out: Antiproliferative activity (IC50 ± S.D., μM) HT-29/Mit
  IC50: 0.9 ± 0.2 µM
[3]; Homo sapiens, LoVo/DX, 72 h, read-out: Antiproliferative activity (IC50 ± S.D., μM) LoVo/Dx
  IC50: 3 ± 1.3 µM
[3]; LoVo/DX variant (MDR phenotype), compared with LoVo
  Interaction with SN38: even more evident
[3]; [8]
  Interaction with doxorubicin: Synergistic interactions
  Interaction with taxol: Synergistic interactions
[4]
  IC50: 6.8 ± 0.5 µM
[5]; NCI-H460, 2.2 μM
  inhibition at 2.2 µM: 92%
[5]; NCI-H460, 5.7 μM
  inhibition at 5.7 µM: 100%
[6]; day 63
  Lung No. Metastasis (range): reduced
  Lung Weight (mg) (mean ± S.D.): 177 ± 30 mg
[6]; day 63, listed as Compound of example 2
  Lung No. Metastasis (range): 15 (3-56)
[6]; inhibition of number of metastasis vs controls
  Lung metastasis Inhibition %: 42%
[7]
  Tox/Tot (any death in treated mice occurring before any control mice): 0/10
